From patent US20160122312A1, “ANTI-VIRAL COMPOUNDS, PHARMACEUTICAL COMPOSITIONS AND METHODS OF USE THEREOF” (KINETA, INC., priority 2013, published 2016) come the findings set out here.

The subject of one experiment is DNV type 2 strain. Kind of experiment: DNV focus-forming assay in Huh7 cells. The format is cell-based, Dengue virus. To be noted: for pIC50: Dengue virus, Huh-7, Huh7 cells, treatment after infection, 48 hours replication; for viral infection of Huh7 cells (decrease in foci, dose dependence): FIG. 4B.
Experiment [1] concerns influenza virus A/Udorn/72 H3N2 strain. Kind of experiment: influenza focus-forming assay in 293 cells. The format is cell-based. The conditions noted are these: for pIC50: HEK293, 24 h, read-out: Flu IC50; for viral infection of 293 cells (decrease in foci, dose dependence): FIGS. 3A, 3B; for antiviral activity compared with KIN101 (viral titer): FIG. 3A.
The test system of a further experiment is hCMV AD169 strain. The experiment can be described thus: hCMV focus-forming assay in human foreskin fibroblasts. The format is cell-based, human cytomegalovirus. To be noted: FIGS. 5A, 5B.

pIC50: −log10 of the molar value.

For the compound `CS(=O)(=O)Oc1ccc2c(=O)c(-c3ccc(OC(F)F)cc3)coc2c1` [KIN378], the pIC50 in the experiment on DNV type 2 strain is less than 5.30; in experiment [1], 6.22.
`CC(C)(C)c1ccc(-c2coc3cc(OCCN4CCOCC4)ccc3c2=O)cc1` [KIN392]: the “hCMV as measured by foci (FFU/mL), dose dependence” value (“hCMV as measured by foci (FFU/mL)” for short) with hCMV AD169 strain was “dose-dependent decreases in hCMV”. Besides, the pIC50 with DNV type 2 strain is 6.19. Also, in experiment [1], the “viral infection of 293 cells (decrease in foci, dose dependence)” value is given as “dose-dependent decreases in viral infection” and the pIC50 is 8.05.
As for `CS(=O)(=O)Oc1ccc2c(=O)c(-c3ccc(OCC4CCCOC4)cc3)coc2c1` (centres unmarked) [KIN850], the pIC50 is 5.87 in the experiment with DNV type 2 strain and 8.70 in experiment [1].
Consider `CC(C)(C)c1ccc(-c2coc3cc(OCC(=O)N4CCOCC4)ccc3c2=O)cc1` [KIN306], for which the negative-log IC50 (pIC50) with DNV type 2 strain is 5.55. Besides, in experiment [1], the “antiviral activity compared with KIN101 (viral titer)” value is given as “improved on this antiviral activity” and the pIC50 was 6.06.
With `CN1CCN(CCOc2ccc3c(=O)c(-c4ccc(C(C)(C)C)cc4)coc3c2)CC1` [KIN807], the pIC50 in the experiment with DNV type 2 strain was 6.89; in experiment [1] it was 6.84.
The like results for `CS(=O)(=O)Oc1ccc2c(=O)c(-c3ccc(OCC4CCOCC4)cc3)coc2c1` [KIN389] were, in that order, less than 5.30 and 6.70.
In the experiment on DNV type 2 strain, `CS(=O)(=O)Oc1ccc2c(=O)c(-c3ccc(NS(=O)(=O)N4CCCCC4)cc3)coc2c1` [KIN308] showed a negative logarithm of the IC50 (pIC50) of 5.38. In experiment [1], the “antiviral activity compared with KIN101 (viral titer)” value was “improved on this antiviral activity” and the pIC50 was 6.97.
Regarding `CN(c1ccc2c(=O)c(-c3ccc(OCCC(C)(C)C)cc3)coc2c1)S(C)(=O)=O` [KIN882], the pIC50 in the experiment with DNV type 2 strain is 6.67; in experiment [1] it was 7.52.
On to `CC(C)(C)c1ccc(-c2coc3cc(OCCO)ccc3c2=O)cc1` [KIN851], for which the pIC50 with DNV type 2 strain was 5.93; in experiment [1], 6.38.
Turning to `CC(C)(C)c1ccc(-c2coc3cc(OS(C)(=O)=O)ccc3c2=O)cc1` [KIN269], the pIC50 in the experiment on DNV type 2 strain is 6.27; in experiment [1], 6.84.
For `O=C(COc1ccc2c(=O)c(-c3ccc(OC(F)(F)F)cc3)coc2c1)N1CCOCC1` [KIN290], in that order: 5.51 and 5.82.
As for `CN(c1ccc2c(=O)c(-c3ccc(OCC(C)(C)C)cc3)coc2c1)S(C)(=O)=O` [KIN867], the values for the pIC50 (with DNV type 2 strain; in experiment [1]) were 6.52 and 8.15, respectively.
Regarding `CN1CCN(CCOc2ccc3c(=O)c(-c4ccc(OC(F)(F)F)cc4)coc3c2)CC1` [KIN823], the pIC50 is 6.43 in the experiment with DNV type 2 strain and 6.82 in experiment [1].
Consider `CC(C)(C)c1ccc(-c2coc3cc(OCCN4CCN(S(C)(=O)=O)CC4)ccc3c2=O)cc1` [KIN395], for which the “hCMV as measured by foci (FFU/mL)” value with hCMV AD169 strain is given as “dose-dependent decreases in hCMV”. Moreover, the pIC50 in the experiment on DNV type 2 strain is 5.71. Moreover, in experiment [1], the “viral infection of 293 cells (decrease in foci, dose dependence)” value is recorded as “dose-dependent decreases in viral infection” and the pIC50 is 7.24.
On to `CS(=O)(=O)N1CCN(CCOc2ccc3c(=O)c(-c4ccc(Br)cc4)coc3c2)CC1` [KIN848], for which the pIC50 in the experiment on DNV type 2 strain is 6.59; in experiment [1] it was 8.40.
For `CN(c1ccc2c(=O)c(-c3ccc(OCC4CC4)cc3)coc2c1)S(C)(=O)=O` [KIN865], in that order: 6.75 and 6.63.
In turn, `CS(=O)(=O)Oc1ccc2c(=O)c(-c3ccc(C(F)(F)F)cc3)coc2c1` [KIN263] gave a pIC50 in the experiment on DNV type 2 strain of 5.86. Also, in experiment [1], the “antiviral activity compared with KIN101 (viral titer)” value is listed as “improved on this antiviral activity” and the pIC50 is 6.10.
With `CC(C)(C)COc1ccc(-c2coc3cc(OS(C)(=O)=O)ccc3c2=O)cc1` [KIN372], the “hCMV as measured by foci (FFU/mL)” value in the experiment on hCMV AD169 strain is listed as “dose-dependent decreases in hCMV”. In the experiment on DNV type 2 strain, the pIC50 is 5.77 and the “viral infection of Huh7 cells (decrease in foci, dose dependence)” value was “dose-dependent decreases in viral infection”. Further, in experiment [1], the “viral infection of 293 cells (decrease in foci, dose dependence)” value is “dose-dependent decreases in viral infection” and the pIC50 was 7.43.
Consider `CS(=O)(=O)Oc1ccc2c(=O)c(-c3ccc(OCC(F)(F)F)cc3)coc2c1` [KIN376], for which the “hCMV as measured by foci (FFU/mL)” value with hCMV AD169 strain was “dose-dependent decreases in hCMV”. In the experiment on DNV type 2 strain, the pIC50 was 5.30 and the “viral infection of Huh7 cells (decrease in foci, dose dependence)” value was “dose-dependent decreases in viral infection”. In addition, in experiment [1], the “viral infection of 293 cells (decrease in foci, dose dependence)” value is “dose-dependent decreases in viral infection” and the pIC50 was 6.99.
In the case of `CN(c1ccc2c(=O)c(-c3ccc(OCC(F)(F)F)cc3)coc2c1)S(C)(=O)=O` [KIN857], the pIC50 was 6.74 with DNV type 2 strain and 7.19 in experiment [1].
`CS(=O)(=O)Oc1ccc2c(=O)c(-c3cccc4ccccc34)coc2c1` [KIN267]: the “antiviral activity compared with KIN101 (viral titer)” value in experiment [1] is reported as “improved on this antiviral activity”.
As for `O=c1c(-c2ccc(OC(F)(F)F)cc2)coc2cc(OCCN3CCOCC3)ccc12` [KIN824], the pIC50 in the experiment on DNV type 2 strain was 6.66; in experiment [1] it was 7.12.
Take `CCN(c1ccc2c(=O)c(-c3ccc(C(C)(C)C)cc3)coc2c1)S(C)(=O)=O` [KIN866]: the pIC50 is 6.29 in the experiment on DNV type 2 strain and 7.57 in experiment [1].
On to `CS(=O)(=O)N1CCN(CCOc2ccc3c(=O)c(-c4ccc(OC(F)(F)F)cc4)coc3c2)CC1` [KIN826], for which the pIC50 was 6.71 in the experiment on DNV type 2 strain and 7.85 in experiment [1].
For the compound `CN(c1ccc(-c2coc3cc(OS(C)(=O)=O)ccc3c2=O)cc1)S(C)(=O)=O` [KIN291], the “antiviral activity compared with KIN101 (viral titer)” value in experiment [1] is recorded as “improved on this antiviral activity”.
Take `CNCCOc1ccc2c(=O)c(-c3ccc(C(C)(C)C)cc3)coc2c1` [KIN861]: the pIC50 with DNV type 2 strain is less than 5.30; in experiment [1], 6.39.
For `CC(=O)N1CCN(CCOc2ccc3c(=O)c(-c4ccc(C(C)(C)C)cc4)coc3c2)CC1` [KIN394], in the experiment with hCMV AD169 strain, the “hCMV as measured by foci (FFU/mL)” value was “dose-dependent decreases in hCMV”. The compound also showed a pIC50 in the experiment with DNV type 2 strain of 6.03. In experiment [1], the “viral infection of 293 cells (decrease in foci, dose dependence)” value is “dose-dependent decreases in viral infection” and the negative-log IC50 (pIC50) was 7.15.
On to `O=c1c(-c2ccc(OC(F)(F)F)cc2)coc2cc(OC(F)F)ccc12` [KIN299], for which the pIC50 with DNV type 2 strain is less than 5.30. In addition, in experiment [1], the “viral infection of 293 cells (decrease in foci, dose dependence)” value is given as “dose-dependent decreases in viral infection” and the pIC50 was 6.15.
In the case of `CS(=O)(=O)Oc1ccc2c(=O)c(-c3ccc(OC(F)(F)F)cc3)coc2c1` [KIN134], in the experiment with hCMV AD169 strain, the “hCMV as measured by foci (FFU/mL)” value is given as “dose-dependent decreases in hCMV”. Besides, in the experiment on DNV type 2 strain, the pIC50 is 5.40 and the “viral infection of Huh7 cells (decrease in foci, dose dependence)” value was “dose-dependent decreases in viral infection”. In addition, in experiment [1], the “antiviral activity compared with KIN101 (viral titer)” value was “improved on this antiviral activity” and the pIC50 is 6.35.
For `CC(=O)N1CCN(CCOc2ccc3c(=O)c(-c4ccc(Br)cc4)coc3c2)CC1` [KIN844], the pIC50 in the experiment with DNV type 2 strain is 6.50; in experiment [1], 8.70.
Take `CN(c1ccc2c(=O)c(-c3ccc(C(C)(C)C)cc3)coc2c1)S(C)(=O)=O` [KIN385]: the “hCMV as measured by foci (FFU/mL)” value with hCMV AD169 strain is listed as “dose-dependent decreases in hCMV”. In addition, in the experiment on DNV type 2 strain, the pIC50 is 6.53 and the “viral infection of Huh7 cells (decrease in foci, dose dependence)” value is given as “dose-dependent decreases in viral infection”. Further, in experiment [1], the “viral infection of 293 cells (decrease in foci, dose dependence)” value is “dose-dependent decreases in viral infection” and the pIC50 is 8.05.
In the experiment with DNV type 2 strain, `CS(=O)(=O)Oc1ccc2c(=O)c(-c3ccc(OCC4CC4)cc3)coc2c1` [KIN371] had a pIC50 of less than 5.30. Also, in experiment [1], the “viral infection of 293 cells (decrease in foci, dose dependence)” value is given as “dose-dependent decreases in viral infection” and the pIC50 was 6.81.
On to `C#CCOc1ccc2c(=O)c(-c3ccc(C(C)(C)C)cc3)coc2c1` [KIN328], for which the “hCMV as measured by foci (FFU/mL)” value with hCMV AD169 strain is recorded as “dose-dependent decreases in hCMV”. Further, in the experiment with DNV type 2 strain, the negative logarithm of the IC50 (pIC50) was 5.87 and the “viral infection of Huh7 cells (decrease in foci, dose dependence)” value is “dose-dependent decreases in viral infection”. Further, in experiment [1], the “viral infection of 293 cells (decrease in foci, dose dependence)” value is on record as “dose-dependent decreases in viral infection” and the negative logarithm of the IC50 (pIC50) was 6.54.
Turning to `CC(=O)N1CCN(CCOc2ccc3c(=O)c(-c4ccc(OC(F)(F)F)cc4)coc3c2)CC1` [KIN814], the pIC50 is 6.73 in the experiment with DNV type 2 strain and 7.21 in experiment [1].
In the case of `O=C(COc1ccc2c(=O)c(-c3ccc(Br)cc3)coc2c1)N1CCOCC1` [KIN238], the values for the pIC50 (in the experiment on DNV type 2 strain; in experiment [1]) were 5.93 and 5.92, respectively.
For the compound `CS(=O)(=O)Oc1ccc2c(=O)c(C3CCCC3)coc2c1` [KIN282], in experiment [1], the “antiviral activity compared with KIN101 (viral titer)” value is “improved on this antiviral activity”.

Broadly, the pIC50 is −log10 of the IC50, conventionally taken in molar units.
